Laboratory results: PubChem BioAssay (NCI)
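A five-concentration, 48-hour dose response in 96-well plates underlies each endpoint, interpolated linearly between surrounding concentrations. TGI denotes the concentration required for complete inhibition of growth.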

How the values were obtained:
Assay in all cases: NCI tumour cell line growth inhibition, 48 h
[1] = tested on: 786-0 renal
[2] = tested on: A498 renal
[3] = tested on: A549 NSCLC
[4] = tested on: ACHN renal
[5] = tested on: CAKI-1 renal
[6] = tested on: CCRF-CEM leukemia
[7] = tested on: DLD-1 colon
[8] = tested on: DMS 114 small cell lung
[9] = tested on: DMS 273 small cell lung
[10] = tested on: EKVX NSCLC
[11] = tested on: HCC-2998 colon
[12] = tested on: HCT-116 colon
[13] = tested on: HCT-15 colon
[14] = tested on: HL-60(TB) leukemia
[15] = tested on: HOP-18 NSCLC
[16] = tested on: HOP-62 NSCLC
[17] = tested on: HOP-92 NSCLC
[18] = tested on: HT29 colon
[19] = tested on: IGROV1 ovarian
[20] = tested on: KM12 colon
[21] = tested on: KM20L2 colon
[22] = tested on: LOX IMVI melanoma
[23] = tested on: LXFL 529 NSCLC
[24] = tested on: M14 melanoma
[25] = tested on: M19-MEL melanoma
[26] = tested on: MOLT-4 leukemia
[27] = tested on: NCI-H23 lung
[28] = tested on: NCI-H460 lung
[29] = tested on: NCI-H522 lung
[30] = tested on: OVCAR-3 ovarian
[31] = tested on: OVCAR-4 ovarian
[32] = tested on: OVCAR-5 ovarian
[33] = tested on: OVCAR-8 ovarian
[34] = tested on: RPMI-8226 leukemia
[35] = tested on: RXF-631 renal
[36] = tested on: SF-268 CNS
[37] = tested on: SF-295 CNS
[38] = tested on: SF-539 CNS
[39] = tested on: SK-MEL-28 melanoma
[40] = tested on: SK-MEL-5 melanoma
[41] = tested on: SK-OV-3 ovarian
[42] = tested on: SN12C renal
[43] = tested on: SNB-19 CNS
[44] = tested on: SNB-75 CNS
[45] = tested on: SNB-78 CNS
[46] = tested on: SR leukemia
[47] = tested on: SW-620 colon
[48] = tested on: TK-10 renal
[49] = tested on: U251 CNS
[50] = tested on: UACC-257 melanoma
[51] = tested on: UACC-62 melanoma
[52] = tested on: UO-31 renal
[53] = tested on: XF 498 CNS

In the case of CC1(C)CC(N(C(=O)/C=C/c2ccc([N+](=O)[O-])o2)C2CCCCC2)CC(C)(C)N1, the TGI [1] is reported as 19.4 µM, the TGI [2] is reported as 30.6 µM and the TGI [3] is reported as 29.7 µM. For the same compound, the TGI [4] was 25.4 µM, the TGI [5] was 17.2 µM and the TGI [6] was 13.3 µM. It also gave a TGI [7] of 3.38 µM, a TGI [8] of 6.87 µM and a TGI [9] of 18 µM. It also gave a TGI [10] of 27 µM, a TGI [11] of 23.6 µM and a TGI [12] of 12 µM. The TGI [13] was 20.2 µM, the TGI [14] was 6.4 µM and the TGI [15] was 37.4 µM. The TGI [16] was 34.5 µM, the TGI [17] was 14.8 µM and the TGI [18] was 15.4 µM. The TGI [19] was 29.1 µM, the TGI [20] was 22.5 µM and the TGI [21] was 18.8 µM. It also gave a TGI [22] of 25.4 µM, a TGI [23] of 17.8 µM and a TGI [24] of 9.54 µM. It also gave a TGI [25] of 16.9 µM, a TGI [26] of 18.2 µM and a TGI [27] of 21.3 µM. It also gave a TGI [28] of 13.9 µM, a TGI [29] of 21.2 µM and a TGI [30] of 25.2 µM. It also gave a TGI [31] of 22.2 µM, a TGI [32] of 38.4 µM and a TGI [33] of 17.8 µM. It also gave a TGI [34] of 12.9 µM, a TGI [35] of 23.4 µM and a TGI [36] of 20.5 µM. The TGI [37] was 26.4 µM, the TGI [38] was 21.8 µM and the TGI [39] was 25.1 µM. It also gave a TGI [40] of 21.8 µM, a TGI [41] of 43.6 µM and a TGI [42] of 18.9 µM. For the same compound, the TGI [43] was 26.3 µM, the TGI [44] was 22.3 µM and the TGI [45] was 26.5 µM. It also gave a TGI [46] of 21.2 µM, a TGI [47] of 6.01 µM and a TGI [48] of 35.8 µM. It also gave a TGI [49] of 18.1 µM, a TGI [50] of 23.1 µM and a TGI [51] of 21.6 µM. For the same compound, the TGI [52] was 24.5 µM and the TGI [53] was 23.5 µM.
